Among the test systems are PC-3 prostate; RXF 393 renal; HS 578T breast; HCT-15 colon; SW-620 colon; M14 melanoma; IGROV1 ovarian; MCF7 breast; T-47D breast; SNB-75 CNS.
Holding throughout (assay): DTP human tumour cell line panel, 48 h

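All cell lines were grown in 96-well plates and treated with compound for 48 hours. Abbreviation: GI50, concentration required for 50% inhibition of growth. Definition used: TGI = concentration required for complete inhibition of growth.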

For 8 compounds, GI50 and TGI results are on record in PubChem BioAssay (NCI).

On to `Cc1c(N2C(=O)/C(=C\c3ccc(N(C)C)cc3)N=C2c2ccccc2)c(=O)n(-c2ccccc2)n1C`, for which the GI50 (usually the concentration giving 50% growth inhibition) in the assay on PC-3 prostate is 29.7 µM; with RXF 393 renal, more than 100 µM; in the assay with HS 578T breast it was more than 100 µM; in the assay with HCT-15 colon, more than 100 µM; with SW-620 colon it was more than 100 µM; in the assay on M14 melanoma, more than 100 µM. The GI50 is 24.1 µM in the assay on IGROV1 ovarian, 25.7 µM in the assay with MCF7 breast, 19.3 µM in the assay on T-47D breast and 60.2 µM in the assay with SNB-75 CNS. Besides, the TGI with PC-3 prostate, in the assay with RXF 393 renal, in the assay on HS 578T breast, in the assay on HCT-15 colon, in the assay on SW-620 colon and in the assay on M14 melanoma was more than 100 µM each time. In addition, the TGI (commonly the concentration at which net growth stops) with IGROV1 ovarian is more than 100 µM; in the assay with MCF7 breast, more than 100 µM; with T-47D breast, more than 87.2 µM; with SNB-75 CNS, more than 100 µM.
In the case of `CSc1ccc(C2=NN(C(=O)c3ccc(N)cc3)C(c3ccc(F)cc3)C2)cc1` (stereo not given), the GI50 with PC-3 prostate is 4.5 µM; in the assay with RXF 393 renal it was 17.7 µM; with HS 578T breast, 21.4 µM; in the assay with HCT-15 colon, 3.28 µM; in the assay on SW-620 colon, 6.27 µM; with M14 melanoma it was 4.24 µM. Further, the GI50 in the assay on IGROV1 ovarian was 4.37 µM; in the assay with MCF7 breast it was 3.42 µM; in the assay with T-47D breast, 6.45 µM; with SNB-75 CNS, 14.2 µM. Besides, the TGI is 19.1 µM in the assay with PC-3 prostate; 34.1 µM in the assay with RXF 393 renal; 55.8 µM in the assay with HS 578T breast; 14.4 µM with HCT-15 colon; 26.3 µM in the assay on SW-620 colon; 15.1 µM with M14 melanoma. Further, the total growth inhibition concentration (TGI) was 25.5 µM in the assay with IGROV1 ovarian, 15.2 µM in the assay with MCF7 breast, 27.6 µM with T-47D breast and 28.1 µM with SNB-75 CNS.
In the case of `N#CC[C@H](C1CCCC1)n1cc(-c2ncnc3[nH]ccc23)cn1`, the GI50 was 35.2 µM in the assay on PC-3 prostate; 4.06 µM in the assay with RXF 393 renal; 5.19 µM in the assay on HS 578T breast; 26.6 µM in the assay with HCT-15 colon; 12.5 µM in the assay on SW-620 colon; 30.3 µM with M14 melanoma. Also, the GI50 in the assay on IGROV1 ovarian was 34 µM; in the assay on MCF7 breast, 17.6 µM; in the assay on T-47D breast, 23.8 µM; with SNB-75 CNS, 3.3 µM. Besides, the concentration for total growth inhibition (TGI) in the assay with PC-3 prostate was more than 100 µM; in the assay with RXF 393 renal, 27.2 µM; in the assay with HS 578T breast it was 69.9 µM; with HCT-15 colon it was more than 100 µM; in the assay on SW-620 colon it was more than 96.6 µM; with M14 melanoma it was more than 88.6 µM. In addition, the TGI was more than 100 µM in the assay with IGROV1 ovarian, more than 86.8 µM with MCF7 breast, more than 91.1 µM in the assay with T-47D breast and more than 61.8 µM with SNB-75 CNS.
`CNCCOc1nc2c3cnccc3cc(-c3cc(OC)c(OC)c(OC)c3)c2c2ccncc12`: the GI50 in the assay on PC-3 prostate is 0.0471 µM; in the assay with RXF 393 renal it was 0.0469 µM; with HS 578T breast, 0.139 µM; with HCT-15 colon, 0.0467 µM; in the assay with SW-620 colon it was 0.0243 µM; with M14 melanoma, 0.0233 µM. Further, the GI50 in the assay with IGROV1 ovarian was 0.0281 µM; with MCF7 breast, less than 0.01 µM; with T-47D breast, 0.0296 µM; with SNB-75 CNS it was 0.0304 µM. The TGI with PC-3 prostate was 1.12 µM; in the assay with RXF 393 renal it was 0.188 µM; in the assay on HS 578T breast it was 0.747 µM; with HCT-15 colon, 2.19 µM; in the assay with SW-620 colon, 1.7 µM; with M14 melanoma, 0.147 µM. For the same compound, the TGI in the assay with IGROV1 ovarian was 0.357 µM; in the assay with MCF7 breast, 0.275 µM; in the assay on T-47D breast, 0.48 µM; in the assay on SNB-75 CNS it was 0.162 µM.
For the compound `NC(=O)NC(=O)C1CCCCC1C(=O)O` (stereo not given), the TGI in the assay with PC-3 prostate, in the assay on RXF 393 renal, in the assay with HS 578T breast, with HCT-15 colon, in the assay with SW-620 colon and with M14 melanoma was more than 100 µM each time. Also, the TGI in the assay with IGROV1 ovarian, with MCF7 breast, in the assay on T-47D breast and with SNB-75 CNS was more than 100 µM each time.
As for `COC(=O)Nc1nc2ccc(Sc3ccccc3)cc2[nH]1`, the GI50 in the assay with PC-3 prostate was 0.214 µM; with RXF 393 renal, 0.154 µM; with HS 578T breast, 0.26 µM; in the assay with HCT-15 colon, 0.0825 µM; in the assay with SW-620 colon it was 0.107 µM; in the assay on M14 melanoma, 0.0892 µM. Further, the GI50 in the assay on IGROV1 ovarian is 0.441 µM; with MCF7 breast, 0.0666 µM; in the assay on T-47D breast, 0.436 µM; with SNB-75 CNS it was 0.195 µM. In addition, the TGI was more than 37.4 µM in the assay with PC-3 prostate; 0.51 µM with RXF 393 renal; 11.2 µM in the assay on HS 578T breast; 23 µM in the assay with HCT-15 colon; more than 48.3 µM in the assay with SW-620 colon; 1.43 µM in the assay with M14 melanoma. For the same compound, the total growth inhibition concentration (TGI) is 18.3 µM with IGROV1 ovarian, 26 µM with MCF7 breast, more than 81.2 µM in the assay on T-47D breast and 2.05 µM in the assay on SNB-75 CNS.
As to `Cc1cc2nc3c4ccccc4n(CCN(C)C)c3nc2cc1C`, the GI50 with PC-3 prostate was 2.01 µM; in the assay with RXF 393 renal it was 1.56 µM; with HS 578T breast, 1.57 µM; with HCT-15 colon it was 1.77 µM; in the assay on SW-620 colon, 0.54 µM; with M14 melanoma, 1.51 µM. For the same compound, the GI50 with IGROV1 ovarian is 1.28 µM; in the assay on MCF7 breast, 1.41 µM; in the assay with T-47D breast, 2.8 µM; in the assay with SNB-75 CNS, 1.28 µM. Moreover, the TGI was found to be 8.19 µM in the assay with PC-3 prostate; 4.1 µM in the assay on RXF 393 renal; 5.76 µM with HS 578T breast; 10.4 µM in the assay with HCT-15 colon; 9.59 µM with SW-620 colon; 3.36 µM in the assay on M14 melanoma. The TGI was 10.2 µM in the assay on IGROV1 ovarian, 7.14 µM in the assay with MCF7 breast, 12.6 µM in the assay on T-47D breast and 3.2 µM in the assay on SNB-75 CNS.
As to `O=[N+]([O-])c1ccc(-c2ccccc2)c([As](=O)(O)O)c1`, the GI50 in the assay with PC-3 prostate is 16.1 µM; in the assay on RXF 393 renal, 10.7 µM; in the assay on HS 578T breast, 0.798 µM; in the assay on HCT-15 colon it was 9.3 µM; in the assay on SW-620 colon it was 7.82 µM; in the assay with M14 melanoma, 26.6 µM. Besides, the GI50 was 8.35 µM with IGROV1 ovarian, 3.75 µM in the assay with MCF7 breast, 4.35 µM in the assay on T-47D breast and 15.1 µM in the assay with SNB-75 CNS. Also, the TGI with PC-3 prostate was more than 100 µM; with RXF 393 renal it was 23.2 µM; in the assay on HS 578T breast, 18.4 µM; in the assay with HCT-15 colon, 41.2 µM; in the assay with SW-620 colon, 24.4 µM; in the assay on M14 melanoma, more than 100 µM. In addition, the TGI in the assay with IGROV1 ovarian was 27.8 µM; with MCF7 breast, 16.1 µM; in the assay with T-47D breast it was 49.5 µM; in the assay on SNB-75 CNS, more than 100 µM.
